The values below come from US20190282476A1, “Cleansing Composition” (Colgate-Palmolive Company, priority 2015, published 2019).

The assay relates to typical microorganisms encountered in personal care compositions. From the text:
The cleansing compositions, e.g. any of Composition 1 or 1.1 to 1.27, include as preservatives, phenoxyethanol, sodium salicylate and a chelating agent (e.g., a salt of ethylenediaminetetraacetic acid). […] It is well known that preservative agents have established minimum inhibitory concentrations, and below such concentrations preservative agents are not effective in preventing microbial growth.

With `O=C([O-])c1ccccc1O.[Na+]` [sodium salicylate], the MIC entry is on record as “about 0.019 % by weight”.
